The source of these data is paper PMC8318231, “Rate-of-Kill (RoK) assays to triage large compound sets for Chagas disease drug discovery: Application to GSK Chagas Box” (PLoS Neglected Tropical Diseases, 2021).

The subject of data set [1] is H9c2 (rat cardiomyocytes). Nature of the data set: RoK assay, number of host cells nuclei (drug-related cytotoxicity, H9c2 output, Cmin_Tox). The settings on record: for Cmin_Tox: H9c2 host cells. The protocol: For this high-content intracellular imaging assay, H9c2 cells were seeded in 225 cm^2 T- FLASK in DMEM with 10% FBS for 4 h to allow attachment. T. cruzi trypomastigotes, collected at days 5 to 8 after infection from LLC-MK2 parasite infected cultures, were allowed to swim out for 4 h at 37°C from a centrifuged pellet (1,600 x g / 10 min). Trypomastigotes were then collected and counted in a CASY Cell Counter using the 60 μm capillary. […] Cells were washed once with PBS before incubation of the infected H9c2 monolayer with trypsin (Life-Technologies) to detach cells from the flask. Cells were counted in a CASY Cell Counter, using the 150 μm capillary, and their density set at 5 x 10^4 cells/mL in supplemented DMEM. Infected H9c2 were dispensed into 384-well plates at 50 μL per well using a Multidrop Combi dispenser. Control wells used to determine a 100% parasitic growth (full 6th column of each plate) were left untreated, whereas not infected cells were added in the control wells used as 0% parasite growth (or 100% parasite growth inhibition; full 18th column of each plate). The four plates corresponding to each RoK assay were predispensed for the same mother plate. […] Cultures were then fixed and stained with 50 μL per well of a PBS solution containing 4% formaldehyde and 2 μM DRAQ5 DNA dye (BioStatus, UK). Then plates were read in a PerkinElmer Opera Phenix using a 20x objective, 3 fields per well. DRAQ5 signal was detected using 640 nm excitation laser and a 690/50 nm emission detection filter. Automated image analysis was performed with a script developed on Acapella High Content Imaging and Analysis Software (PerkinElmer). Two outputs were provided for each sample well: (1) number of host cells nuclei to determine drug-related cytotoxicity (aka H9c2) and (2) number of amastigotes per cell as infection level measurement (aka AM/CELL). Each output is plotted as a time course for each compound at every concentration. This assay was adapted from Alonso-Padilla et al. and Peña et al..
• ME (Maximum Effect) is the maximum percentage of parasite burden reduction reached by any compound concentration. Compounds that decrease the initial parasite load will show a positive value of ME, whereas compounds that allow the progression of infection will render a negative ME value. […] It is calculated for the MCC50 (t50%_MCC50) and for the maximum concentration (t50%_Cmax). […] The value of this parameter is not either interpolated or extrapolated, and it refers to the first experimental time-course point at which a 50% of effect is reached or exceeded. • tlag defines the time elapsed for one particular concentration to reduce parasite burden between two consecutive points at any moment of the time course. It is calculated for the MCC50 (tlag_MCC50) and for the maximum concentration (tlag_Cmax). The value of this parameter is not either interpolated or extrapolated, and it refers to the first experimental time-course point of a positive slope in the normalised plot (i.e. %Cidal_Response). • Cmin_Tox (Minimal CytoToxic Concentration) is the lowest compound concentration that is reducing the number of host mammalian cells below 50% of initial cell density. Cytotoxic compounds may mislead a bona fide antiparasitic action. Therefore, this descriptor is used to flag this kind of compounds and warn about the genuine meaning of the rest of descriptors.

Another data set relates to TcCYP51. The conditions noted are these: formerly reported; cited from earlier work.

Some results are limits rather than exact numbers.

On to `CC(=Cc1ccccc1)CN1CCC(=O)N(Cc2cccnc2)CC1` [TCMDC-143421], for which the “Cmin_Tox” value in data set [1] is over 50 µM. The “CYP51 pIC50” value in the data set with TcCYP51 is recorded as 7.
Regarding `CC(C)Oc1cccc(N2CCC(C(=O)N3CCCN(C(C)C)CC3)CC2)c1.Cl` [TCMDC-143432], the “Cmin_Tox” value in data set [1] is listed as over 50 µM. The “CYP51 pIC50” value in the data set on TcCYP51 is on record as under 4.
Regarding `CCN(Cc1ccncc1)Cc1ccc(NC(=O)c2cc(-c3ccc(F)cc3)n[nH]2)cc1` [TCMDC-143433], the “Cmin_Tox” value in data set [1] was over 50 µM. The “CYP51 pIC50” value with TcCYP51 is 7.1.
Turning to `COc1cccc(CCNC(=O)C(c2cn[nH]c2)N2CCN(c3ccc(Cl)cc3)CC2)c1` (stereo not drawn) [TCMDC-143434], in data set [1], the “cytotoxicity versus host cells (in words)” value is recorded as “hints of cytotoxicity even at low concentrations” and the “Cmin_Tox” value is on record as over 50 µM. Further, the “CYP51 pIC50” value in the data set with TcCYP51 was 7.2.
`CC(C)c1cc(C(=O)N2CCCC(c3cc4ncccc4[nH]3)C2)on1` (stereo not drawn) [TCMDC-143439]: the “Cmin_Tox” value in data set [1] is on record as over 50 µM. In the data set with TcCYP51, the “CYP51 pIC50” value is listed as 4.3.
As for `Fc1ccc(OC2CC(NCc3cccc4cn[nH]c34)C2)cc1C(F)(F)F` (stereo not drawn) [TCMDC-143455], the “Cmin_Tox” value in data set [1] was determined as 16.7 µM. The “CYP51 pIC50” value in the data set with TcCYP51 is listed as 6.9.
In the case of `CNc1c(C(N)=O)c(-c2ccc3scnc3c2)nn1CC(F)(F)F.O=C(O)C(F)(F)F` [TCMDC-143463], in data set [1], the “Cmin_Tox” value is recorded as over 50 µM. Further, the “CYP51 pIC50” value with TcCYP51 was under 4.
For the molecule `OCCCNc1nc(Nc2ccncc2)nc2ccccc12` [TCMDC-143476], the “Cmin_Tox” value in data set [1] is reported as over 50 µM. Besides, in the data set on TcCYP51, the “CYP51 pIC50” value is given as under 4.
As for `Cc1nn(C)c(Cl)c1CN(Cc1cccnc1)Cc1ccsc1` [TCMDC-143477], the “Cmin_Tox” value in data set [1] is reported as over 50 µM. Besides, in the data set on TcCYP51, the “CYP51 pIC50” value is recorded as 7.2.
`Cc1ccc(C)c(OC2CCN(C(=O)C(C)n3ccnc3)CC2)c1` (stereo not drawn) [TCMDC-143481]: the “Cmin_Tox” value in data set [1] is given as over 50 µM. Also, in the data set on TcCYP51, the “CYP51 pIC50” value is recorded as 7.
For the molecule `Cc1[nH]c2ccccc2c(=O)c1Cc1c(C)[nH]c2ccccc2c1=O` [TCMDC-143490], the “Cmin_Tox” value in data set [1] is over 50 µM. In the data set on TcCYP51, the “CYP51 pIC50” value is reported as under 4.
Regarding `CNc1cc(C)nc(C2CN(C(=O)c3n[nH]c4ccccc34)CCO2)c1` (stereo not drawn) [TCMDC-143494], the “Cmin_Tox” value in data set [1] was over 50 µM. Also, the “CYP51 pIC50” value with TcCYP51 is recorded as under 4.
As for `Cc1nccn1C1CCCN(C(=O)c2cc3c(F)cccc3s2)C1` (stereo not drawn) [TCMDC-143498], the “Cmin_Tox” value in data set [1] was over 50 µM. For the same molecule, the “CYP51 pIC50” value in the data set with TcCYP51 is reported as 4.3.
On to `Cc1cc2cncn2c(C2CCCCN2C(=O)c2cccs2)n1` (stereo not drawn) [TCMDC-143500], for which the “Cmin_Tox” value in data set [1] is reported as over 50 µM. Moreover, the “CYP51 pIC50” value with TcCYP51 is reported as 7.
In the case of `Cn1cncc1CN1CCC2(CC1)COC(Cc1ccccc1)C2` (stereo not drawn) [TCMDC-143502], the “Cmin_Tox” value in data set [1] is given as over 50 µM. For the same molecule, the “CYP51 pIC50” value in the data set on TcCYP51 is recorded as 6.
As for `CN(Cc1ccc(C(N)=O)cc1)C(c1ccc(F)cc1)c1cccnc1` (stereo not drawn) [TCMDC-143504], the “Cmin_Tox” value in data set [1] is on record as over 50 µM. Besides, in the data set on TcCYP51, the “CYP51 pIC50” value is recorded as 7.
For the molecule `O=C(C1CCCCC1)N1CCN(c2nnc(-c3ccccc3)c3ccccc23)CC1` [TCMDC-143511], in data set [1], the “Cmin_Tox” value is over 50 µM. Further, in the data set with TcCYP51, the “CYP51 pIC50” value is recorded as under 4.
`CN(C(=O)Nc1ccc2c(c1)CCN(C1CCC1)CC2)c1ccc(C#N)cc1.Cl` [TCMDC-143526]: the “Cmin_Tox” value in data set [1] is listed as over 50 µM. Also, the “CYP51 pIC50” value with TcCYP51 is under 4.
As for `CC(CNS(=O)(=O)c1ccc(OC(F)F)cc1)c1ccc(NC(=O)c2ccncc2)cc1` (stereo not drawn) [TCMDC-143535], in data set [1], the “Cmin_Tox” value is reported as over 50 µM. Moreover, in the data set with TcCYP51, the “CYP51 pIC50” value is 7.3.
Regarding `Cn1cc(CN2CCN(c3ccc4c(c3)CCN(C(=O)[C@H]3C[C@@H]3c3ccccc3)CC4)CC2)cn1` [TCMDC-143537], the “Cmin_Tox” value in data set [1] is reported as over 50 µM. In addition, in the data set on TcCYP51, the “CYP51 pIC50” value is 4.8.
With `O=C(CN(c1cccc(C(F)(F)F)c1)S(=O)(=O)c1ccc(Cl)cc1)NCc1ccc(F)c(F)c1` [TCMDC-143548], in data set [1], the “Cmin_Tox” value is over 50 µM. Also, the “CYP51 pIC50” value in the data set on TcCYP51 is reported as 6.8.
Consider `COc1ccc(S(=O)(=O)NCc2ccc(-c3ccc(CN(C)CCO)cc3)cc2)cc1.O=C(O)C(F)(F)F` [TCMDC-143549], for which the “Cmin_Tox” value in data set [1] is over 50 µM. In addition, the “CYP51 pIC50” value in the data set on TcCYP51 was 4.8.
